Assay results as given in US20250051333A1, “POLYMORPH OF KRAS INHIBITOR, PREPARATION METHOD THEREFOR, AND USE THEREOF” (GENFLEET THERAPEUTICS (SHANGHAI) INC., priority 2021, published 2025).

Columns and labels:
Type in all cases: physicochemical
[1] = Variable-temperature XRPD / heating test of crystalline forms
Experimental: The X-ray powder diffraction (XRPD) analysis may be conducted on the X'Pert3 X-ray powder diffraction analyzer with the following parameters: Cu, kα; Kα1 (Å): 1.540598: Kα2 (Å): 1.544426; Kα2/Kα1 intensity ratio: 0.50; voltage: 45 kV; current: 40 mA; divergent slit: ⅛°; scan mode: continuous: scanning range: 3° to 40°: scanning step: 0.0263°; time of step: 46.665 s: scanning time: 5 min 03 s. Alternatively, the analysis may be conducted on the PANalytical Empyrean X-ray powder diffraction analyzer with the following parameters: Cu, kα; Kα1 (Å): 1.540598: Kα2 (Å); 1.544426: Kα2/Kα1 intensity ratio: 0.50: voltage: 45 kV; current; 40 mA: divergent slit: automatic; scan mode: continuous; scanning range: 3° to 40°; scanning step: 0.0167°; time of step: 17.780 s/33.020 s; scanning time: 5 min 32 s/10 min 13 s.

[2] = Humidity induction test: standing at various humidities at room temperature; conditions: for Polymorphic transition or not: room temperature, open
Excerpt: Some of the crystalline forms prepared in the above examples were investigated in a humidity induction test at room temperature.

[3] = Solid stability, 60° C./75% RH open, physical stability by XRPD; conditions: for Crystalline form: XRPD; for Polymorphic transition: 60° C./75% RH open, up to 1 month
Experimental: Appropriate amounts of samples were weighed and let stand at 60° C./75% RH open to the atmosphere for 7 days, 14 days, and 1 month. Samples of different standing times were evaluated for the physical stability of the crystalline forms by XRPD.

[4] = Hygroscopicity by DVS testing; conditions: for Desorption curve (cycle 1, desorption): DVS 25° C., from 30% RH to 95% RH
Experimental: The dynamic vapor sorption (DVS) analysis may be conducted on the DVS Intrinsic system from Surface Measurement Systems (SMS). Temperature: 25° C.: sample amount: 20-40 mg; protective gas and flow rate: N2, 200 mL/min; dm/dt: 0.002%/min; minimum dm/dt equilibration time: 10 min, maximum equilibration time. 180 min; RH range: room humidity to 95% RH to 0% RH to 95% RH: 0% RH to 95% RH to 0% RH; RH gradient: 10% RH (0% RH to 90% RH & 90% RH to 0% RH): 5% RH (90% RH to 95% RH & 95% RH to 90% RH).

[5] = Solid stability, 60° C. sealed 24 hours and 40° C./75% RH open one week (XRPD, HPLC, KF); conditions: for Purity (%): HPLC; for Water content (%): KF test; for Polymorphic transition or not: XRPD; for HPLC purity change / Polymorphic transition: 60° C. sealed 24 hours and 40° C./75% RH open one week; for Relative to the initial (%): purity
Excerpt: Proton nuclear magnetic resonance may be conducted on the Bruker 400M nuclear magnetic resonance spectrometer, with deuterated chloroform, deuterated methanol, or dimethyl sulfoxide-d6 as the solvent. Water titration (KF test) may be conducted on the Metrohm 870 KF Titrinoplus from Sigma-Aldrich, with ultrapure water for calibration and Hydranal® R-Composite 5 as the titration reagent. HPLC-grade methanol was used to dissolve the solid sample.
High-performance liquid chromatography (HPLC) may be conducted on the Agilent 1260 high-performance liquid chromatograph system (Waters Xbridge C18, 150×4.6 mm, 5 μm column).
In order to further evaluate the solid stability of the crystalline forms of the present invention, appropriate amounts of samples were for at 60° C. in a sealed condition for 24 hours and at 40° C./75% RH open to the atmosphere for a week.

[6] = 43.2% RH (saturated potassium carbonate), 10 days
[7] = 23 days open to the atmosphere at room temperature at 43.2% RH to 84.2% RH
[8] = 22.5% RH (saturated potassium acetate), 10 days
[9] = 22.5% RH (saturated potassium acetate), 23 days
[10] = 22.5% RH (saturated potassium acetate), 30 days
[11] = 43.2% RH (saturated potassium carbonate), 23 days
[12] = 43.2% RH (saturated potassium carbonate), 30 days
[13] = 60% RH (stability chamber), 10 days
[14] = 60% RH (stability chamber), 23 days
[15] = 60% RH (stability chamber), 30 days
[16] = 84.2% RH (saturated potassium chloride), 10 days
[17] = 84.2% RH (saturated potassium chloride), 23 days
[18] = 84.2% RH (saturated potassium chloride), 30 days
[19] = 30 days open to the atmosphere at room temperature at 22.5% RH to 84.2% RH

C=CC(=O)N1CCN2c3c(c(=O)n(-c4c(C)ccnc4C(C)C)c4nc(-c5c(O)cccc5F)c(Cl)cc34)N(C)C(=O)[C@H]2C1 [Crystalline form 9, (4aR,8R)-3-acryloyl-11-chloro-10-(2-fluoro-6-hydroxyphenyl)-8-(2-isopropyl-4-methylpyridin-3-yl)-6-methyl-2,3,4,4a,6,8-hexahydro-1H-pyrazino[1′,2′:4,5]pyrazino[2,3-c][1,8]naphthyridine-5,7-dione]
XRPD pattern after heating test ([1]; heated to 100° C. and exposed to air): identical to that before heating
Polymorphic transition or not [2, 6]: No
Polymorphic transition [2, 7]: neither crystalline form 8 (Example 40) nor crystalline form 9 (Example 42) exhibited polymorphic transition

C=CC(=O)N1CCN2c3c(c(=O)n(-c4c(C)ccnc4C(C)C)c4nc(-c5c(O)cccc5F)c(Cl)cc34)N(C)C(=O)[C@H]2C1 [Crystalline form 3, (4aR,8R)-3-acryloyl-11-chloro-10-(2-fluoro-6-hydroxyphenyl)-8-(2-isopropyl-4-methylpyridin-3-yl)-6-methyl-2,3,4,4a,6,8-hexahydro-1H-pyrazino[1′,2′:4,5]pyrazino[2,3-c][1,8]naphthyridine-5,7-dione]
Crystalline form ([3]; 60° C./75% RH (open), 1 month): Crystalline form 3
Crystalline form ([3]; 60° C./75% RH (open), 7 days): Crystalline form 3
Crystalline form ([3]; 60° C./75% RH (open), 14 days): Crystalline form 3
Polymorphic transition [3]: no transition
Crystalline form ([3]; Initial, 0 days): Crystalline form 3
Crystalline form change on heating (variable-temperature XRPD) ([1]; heating to 150° C. and cooling to 30° C. in a N2 atmosphere): no crystalline form changes were observed
Polymorphic transition or not [2, 8]: No
Polymorphic transition or not [2, 9]: No
Polymorphic transition or not [2, 10]: No
Polymorphic transition or not [2, 6]: No
Polymorphic transition or not [2, 11]: No
Polymorphic transition or not [2, 12]: No
Polymorphic transition or not [2, 13]: No
Polymorphic transition or not [2, 14]: No
Polymorphic transition or not [2, 15]: No
Polymorphic transition or not [2, 16]: No
Polymorphic transition or not [2, 17]: No
Polymorphic transition or not [2, 18]: No
Polymorphic transition [2, 19]: neither crystalline form 6 (Example 12) nor crystalline form 3 (Example 3) exhibited polymorphic transition
Weight gain (DVS) ([4]; 25° C./80% RH): less than 0.9%
Hygroscopicity (in words) ([4]; DVS at 25° C., 0% RH to 95% RH): almost no hygroscopicity
Crystalline form after DVS testing (XRPD) ([4]; after DVS testing): did not change
Purity (%) ([5]; 40° C./75% RH/open, 1 week): 99.27%
Water content (%) ([5]; 40° C./75% RH/open, 1 week): 1.3%
Polymorphic transition or not ([5]; 40° C./75% RH/open, 1 week): No
HPLC purity change [5]: no significant decrease in HPLC purity
Polymorphic transition [5]: no polymorphic transition
Purity (%) ([5]; 60° C./sealed, 1 day): 99.27%
Water content (%) ([5]; 60° C./sealed, 1 day): 1.1%
Polymorphic transition or not ([5]; 60° C./sealed, 1 day): No
Purity (%) ([5]; Initial): 99.33%
Water content (%) ([5]; Initial): 0.9%
Relative to the initial (%) ([5]; 40° C./75% RH/open, 1 week): 99.94%
Relative to the initial (%) ([5]; 60° C./sealed, 1 day): 99.94%

C=CC(=O)N1CCN2c3c(c(=O)n(-c4c(C)ccnc4C(C)C)c4nc(-c5c(O)cccc5F)c(Cl)cc34)N(C)C(=O)[C@H]2C1 [Crystalline form 8, (4aR,8R)-3-acryloyl-11-chloro-10-(2-fluoro-6-hydroxyphenyl)-8-(2-isopropyl-4-methylpyridin-3-yl)-6-methyl-2,3,4,4a,6,8-hexahydro-1H-pyrazino[1′,2′:4,5]pyrazino[2,3-c][1,8]naphthyridine-5,7-dione]
Polymorphic transition or not [2, 6]: No
Polymorphic transition or not [2, 11]: No
Polymorphic transition or not [2, 13]: No
Polymorphic transition or not [2, 14]: No
Polymorphic transition or not [2, 16]: No
Polymorphic transition or not [2, 17]: No
Polymorphic transition [2, 7]: neither crystalline form 8 (Example 40) nor crystalline form 9 (Example 42) exhibited polymorphic transition

C=CC(=O)N1CCN2c3c(c(=O)n(-c4c(C)ccnc4C(C)C)c4nc(-c5c(O)cccc5F)c(Cl)cc34)N(C)C(=O)[C@H]2C1 (single isomer, unassigned) [Amorphous form sample]
Crystalline form ([3]; 60° C./75% RH (open), 1 month): Polymorphic transition
Crystalline form ([3]; 60° C./75% RH (open), 7 days): Amorphous form
Polymorphic transition [3]: occurrence of polymorphic transition
Crystalline form ([3]; Initial, 0 days): Amorphous form
Desorption curve (cycle 1, desorption) [4]: a plateau was observed

C=CC(=O)N1CCN2c3c(c(=O)n(-c4c(C)ccnc4C(C)C)c4nc(-c5c(O)cccc5F)c(Cl)cc34)N(C)C(=O)[C@H]2C1 [Crystalline form 11, (4aR,8R)-3-acryloyl-11-chloro-10-(2-fluoro-6-hydroxyphenyl)-8-(2-isopropyl-4-methylpyridin-3-yl)-6-methyl-2,3,4,4a,6,8-hexahydro-1H-pyrazino[1′,2′:4,5]pyrazino[2,3-c][1,8]naphthyridine-5,7-dione]
Crystalline form change on heating (variable-temperature XRPD) ([1]; holding at 30° C. for 20 minutes and heating to 100 C in a N2 atmosphere): no significant crystalline form changes were observed

C=CC(=O)N1CCN2c3c(c(=O)n(-c4c(C)ccnc4C(C)C)c4nc(-c5c(O)cccc5F)c(Cl)cc34)N(C)C(=O)[C@H]2C1 [Crystalline form 6, (4aR,8R)-3-acryloyl-11-chloro-10-(2-fluoro-6-hydroxyphenyl)-8-(2-isopropyl-4-methylpyridin-3-yl)-6-methyl-2,3,4,4a,6,8-hexahydro-1H-pyrazino[1′,2′:4,5]pyrazino[2,3-c][1,8]naphthyridine-5,7-dione]
Polymorphic transition [3]: mild transition
Crystalline form ([3]; Initial, 0 days): Crystalline form 6
Polymorphic transition or not [2, 8]: No
Polymorphic transition or not [2, 9]: No
Polymorphic transition or not [2, 10]: No
Polymorphic transition or not [2, 6]: No
Polymorphic transition or not [2, 11]: No
Polymorphic transition or not [2, 12]: No
Polymorphic transition or not [2, 13]: No
Polymorphic transition or not [2, 14]: No
Polymorphic transition or not [2, 15]: No
Polymorphic transition or not [2, 16]: No
Polymorphic transition or not [2, 17]: No
Polymorphic transition or not [2, 18]: No
Polymorphic transition [2, 19]: neither crystalline form 6 (Example 12) nor crystalline form 3 (Example 3) exhibited polymorphic transition
Desorption curve (cycle 1, desorption) [4]: a plateau can be observed
Crystallinity after DVS testing ([4]; after DVS testing): only slightly reduced
Purity (%) ([5]; 40° C./75% RH/open, 1 week): 99.56%
Water content (%) ([5]; 40° C./75% RH/open, 1 week): 8.7%
Polymorphic transition or not ([5]; 40° C./75% RH/open, 1 week): No
HPLC purity change [5]: no significant decrease in HPLC purity
Polymorphic transition [5]: no polymorphic transition
Purity (%) ([5]; 60° C./sealed, 1 day): 99.62%
Water content (%) ([5]; 60° C./sealed, 1 day): 6.2%
Polymorphic transition or not ([5]; 60° C./sealed, 1 day): No
Purity (%) ([5]; Initial): 99.61%
Water content (%) ([5]; Initial): 9.0%
Relative to the initial (%) ([5]; 40° C./75% RH/open, 1 week): 99.95%
Relative to the initial (%) ([5]; 60° C./sealed, 1 day): 100.01%

C=CC(=O)N1CCN2c3c(c(=O)n(-c4c(C)ccnc4C(C)C)c4nc(-c5c(O)cccc5F)c(Cl)cc34)N(C)C(=O)[C@H]2C1 [Crystalline form 4, (4aR,8R)-3-acryloyl-11-chloro-10-(2-fluoro-6-hydroxyphenyl)-8-(2-isopropyl-4-methylpyridin-3-yl)-6-methyl-2,3,4,4a,6,8-hexahydro-1H-pyrazino[1′,2′:4,5]pyrazino[2,3-c][1,8]naphthyridine-5,7-dione]
Crystalline form change on heating (variable-temperature XRPD) ([1]; heating to 80° C. or 130° C. in a N2 atmosphere): no significant crystalline form changes were observed
